For test [1], the system named is collagen-induced platelet aggregation. The experiment in a line: collagen-induced platelet aggregation (P.A.) inhibition after oral dosing. As to conditions: 2 doses at time zero and 2 hours later, blood removed 60 minutes after last dose, 0.05 ml. of 1:45 collagen dilution. Type of test: in vivo, guinea pigs. The procedure: Certain of the compounds of this invention are also platelet aggregation inhibitors and the results of testing for this activity are also included in Table I. The platelet aggregation test used involves the effect of a drug upon collagen-induced platelet aggregation using the method of Hermann et al., Proc. Soc. Exp. Biol. Med. 136, 548 (1972). According to this procedure, 300-400 g. guinea pigs are used and the compound is administered by the oral route in 2 doses, at time zero and again 2 hours later, at a series of graded dose levels to groups of 4 pigs each. One group is maintained as a control group. Blood is removed by heart puncture 60 minutes after the last dose, and a platelet-rich plasma prepared therefrom. A stock collagen solution is prepared by solubilizing bovine Achilles tendon with acetic acid. The stock solution contains 0.25 percent collagen, has a pH of 2.8 and is kept under refrigeration. […] (Activity was determined by computor printout with significance at the 95 percent confidence level being attained at about the 50 percent inhibition level). In Table 1, column 1 gives the name of the compound, column 2, the ED50 for erythema blocking calculated as set forth above and column 3, the lowest active dose in the platelet aggregation test.

Test [2] deals with erythema produced by an ultra-violet light source on guinea pig skin. The experiment in a line: UV-light-induced erythema blocking on guinea pig skin (anti-inflammatory activity). The test is classed as in vivo, albino guinea pigs. Particulars: Cavia porcellus; oral, suspension in 1 percent aqueous sodium carboxymethylcellulose; groups of 4 guinea pigs; obtained directly or by extrapolation; read-out: ED50 for erythema blocking (dose producing 50 percent inhibition of the erythemic response). The procedure:
The compounds of this invention are anti-inflammatory and anti-thrombotic agents. […] Int. Pharmacodyn, 116, 261 (1958). In this procedure, albino guinea pigs weighing 225-300 gms. are shaved on the back and chemically depilated 18 to 20 hours before initiation of the test procedures. Animals in groups of 4 are given predetermined dosages of the drug under test with one group being maintained as a control group. The drug is administered by the oral route as a suspension in 1 percent aqueous sodium carboxymethylcellulose. The control animals receive only the suspending medium. After having being given the drug or suspension medium only, each group of animals is exposed to a high-intensity ultra-violet light for a predetermined period of time, the ultra-violet light being placed in contact with the depilated skin area on the animals' back. A gummed paper reinforcement is affixed to the lamp lens to provide an unexposed area of contrast for grading the light-produced erythema.
Beginning one hour after exposure and thereafter an half-hour intervals for another 1.5 hours, a trained observer grades erythema using an arbitrary scoring system based upon the degree of contrast and redness formed. […] The following scoring system is used:
Total scores from each treatment group of four guinea pigs are compared to the control treatment, and the percent inhibition calculated as follows: [formula] […]

`Nc1cccc2c1NC(=O)C2c1ccccc1` (stereo not shown) [2-oxo-3-phenyl-7-aminoindoline]: in test [1], the “P.A., lowest active dose in the platelet aggregation test (active = about 50% inhibition of collagen-induced aggregation)” value came out at 100 mg/kg × 2. The ED50 (commonly the dose at which the effect has come halfway, by size or by number of responders) in test [2] is 10.2 mg/kg.
With `CC(=O)Nc1cccc2c1NC(=O)C2c1ccccc1` (stereo not shown) [N-(2-oxo-3-phenyl-7-indolinyl)-acetamide, N-(2-oxo-3-phenyl-7-indolinyl)acetamide], the “P.A., lowest active dose in the platelet aggregation test (active = about 50% inhibition of collagen-induced aggregation)” value in test [1] is recorded as 3.12 mg/kg × 2. Besides, in test [2], the ED50 is 20 mg/kg.

These data come from patent US4110465A, “7-Amino and 7-alkanoylamino 2-oxo-3-phenylindolines” (Eli Lilly and Company, priority 1977, dated 1978).
